Assay results published in ChEMBL document CHEMBL4020788, “Synthesis, SAR and molecular docking studies of benzo[d]thiazole-hydrazones as potential antibacterial and antifungal agents” (2017).
Values after ≈ are worked out from the molar mass of the structure shown. Active and inactive are the calls of the source. The rule behind the calls is not given here.

Tests used:
Type in all cases: functional
Staphylococcus aureus [1] = assay: Antibacterial activity against methicillin resistant Staphylococcus aureus MRSA090 incubated for overnight by microdilution method
Klebsiella pneumoniae [2] = assay: Antibacterial activity against Klebsiella pneumoniae at 25 ug/ml after 24 hrs by agar well diffusion method
Klebsiella pneumoniae [3] = assay: Antibacterial activity against Klebsiella pneumoniae at 50 ug/ml after 24 hrs by agar well diffusion method
Aspergillus niger [4] = assay: Antifungal activity against Aspergillus niger at 75 ug/ml after 48 hrs by agar well diffusion method; settings: read-out: DIZ
Staphylococcus aureus [5] = assay: Antibacterial activity against methicillin resistant Staphylococcus aureus MRSA090 at 100 ug/ml after 24 hrs by agar well diffusion method; settings: MRSA090, 24 h, read-out: DIZ
Staphylococcus aureus [6] = assay: Antibacterial activity against methicillin resistant Staphylococcus aureus MRSA090 at 25 ug/ml after 24 hrs by agar well diffusion method; settings: MRSA090, 24 h, read-out: DIZ
Escherichia coli [7] = assay: Antibacterial activity against Escherichia coli at 25 ug/ml after 24 hrs by agar well diffusion method; settings: read-out: DIZ
Staphylococcus aureus [8] = assay: Antibacterial activity against Staphylococcus aureus incubated for overnight by microdilution method
Fusarium oxysporum [9] = assay: Antifungal activity against Fusarium oxysporum at 100 ug/ml after 48 hrs by agar well diffusion method; settings: read-out: DIZ
Staphylococcus aureus [10] = assay: Antibacterial activity against Staphylococcus aureus at 75 ug/ml after 24 hrs by agar well diffusion method; settings: read-out: DIZ
Klebsiella pneumoniae [11] = assay: Antibacterial activity against Klebsiella pneumoniae at 75 ug/ml after 24 hrs by agar well diffusion method
Aspergillus niger [12] = assay: Antifungal activity against Aspergillus niger at 50 ug/ml after 48 hrs by agar well diffusion method; settings: read-out: DIZ
Fusarium verticillioides [13] = assay: Antifungal activity against Fusarium moniliforme at 100 ug/ml after 48 hrs by agar well diffusion method; settings: read-out: DIZ
Fusarium verticillioides [14] = assay: Antifungal activity against Fusarium moniliforme at 50 ug/ml after 48 hrs by agar well diffusion method; settings: read-out: DIZ
Klebsiella pneumoniae [15] = assay: Antibacterial activity against Klebsiella pneumoniae incubated for overnight by microdilution method
Escherichia coli [16] = assay: Antibacterial activity against Escherichia coli at 75 ug/ml after 24 hrs by agar well diffusion method; settings: read-out: DIZ
Fusarium verticillioides [17] = assay: Antifungal activity against Fusarium moniliforme at 25 ug/ml after 48 hrs by agar well diffusion method; settings: read-out: DIZ
Escherichia coli [18] = assay: Antibacterial activity against Escherichia coli at 100 ug/ml after 24 hrs by agar well diffusion method; settings: read-out: DIZ
Staphylococcus aureus [19] = assay: Antibacterial activity against methicillin resistant Staphylococcus aureus MRSA090 at 50 ug/ml after 24 hrs by agar well diffusion method; settings: MRSA090, 24 h, read-out: DIZ
Klebsiella pneumoniae [20] = assay: Antibacterial activity against Klebsiella pneumoniae at 100 ug/ml after 24 hrs by agar well diffusion method
Aspergillus niger [21] = assay: Antifungal activity against Aspergillus niger at 100 ug/ml after 48 hrs by agar well diffusion method; settings: read-out: DIZ
Bacillus subtilis [22] = assay: Antibacterial activity against Bacillus subtilis at 100 ug/ml after 24 hrs by agar well diffusion method; settings: read-out: DIZ
Fusarium oxysporum [23] = assay: Antifungal activity against Fusarium oxysporum at 25 ug/ml after 48 hrs by agar well diffusion method; settings: read-out: DIZ
Aspergillus niger [24] = assay: Antifungal activity against Aspergillus niger at 25 ug/ml after 48 hrs by agar well diffusion method; settings: read-out: DIZ
Escherichia coli [25] = assay: Antibacterial activity against Escherichia coli incubated for overnight by microdilution method
Bacillus subtilis [26] = assay: Antibacterial activity against Bacillus subtilis at 75 ug/ml after 24 hrs by agar well diffusion method; settings: read-out: DIZ
Aspergillus niger [27] = assay: Antifungal activity against Aspergillus niger after 48 to 72 hrs by microdilution method
Bacillus subtilis [28] = assay: Antibacterial activity against Bacillus subtilis at 25 ug/ml after 24 hrs by agar well diffusion method; settings: read-out: DIZ
Bacillus subtilis [29] = assay: Antibacterial activity against Bacillus subtilis at 50 ug/ml after 24 hrs by agar well diffusion method; settings: read-out: DIZ
Escherichia coli [30] = assay: Antibacterial activity against Escherichia coli at 50 ug/ml after 24 hrs by agar well diffusion method; settings: read-out: DIZ
Fusarium oxysporum [31] = assay: Antifungal activity against Fusarium oxysporum after 48 to 72 hrs by microdilution method
Fusarium oxysporum [32] = assay: Antifungal activity against Fusarium oxysporum at 50 ug/ml after 48 hrs by agar well diffusion method; settings: read-out: DIZ
Fusarium oxysporum [33] = assay: Antifungal activity against Fusarium oxysporum at 75 ug/ml after 48 hrs by agar well diffusion method; settings: read-out: DIZ
Staphylococcus aureus [34] = assay: Antibacterial activity against Staphylococcus aureus at 25 ug/ml after 24 hrs by agar well diffusion method; settings: read-out: DIZ
Fusarium verticillioides [35] = assay: Antifungal activity against Fusarium moniliforme after 48 to 72 hrs by microdilution method
Fusarium verticillioides [36] = assay: Antifungal activity against Fusarium moniliforme at 75 ug/ml after 48 hrs by agar well diffusion method; settings: read-out: DIZ
Staphylococcus aureus [37] = assay: Antibacterial activity against Staphylococcus aureus at 100 ug/ml after 24 hrs by agar well diffusion method; settings: read-out: DIZ
Staphylococcus aureus [38] = assay: Antibacterial activity against Staphylococcus aureus at 50 ug/ml after 24 hrs by agar well diffusion method; settings: read-out: DIZ
Staphylococcus aureus [39] = assay: Antibacterial activity against methicillin resistant Staphylococcus aureus MRSA090 at 75 ug/ml after 24 hrs by agar well diffusion method; settings: MRSA090, 24 h, read-out: DIZ
Bacillus subtilis [40] = assay: Antibacterial activity against Bacillus subtilis incubated for overnight by microdilution method

Structure (SMILES)	zone of inhibition at 75 µg/mL (Aspergillus niger [4]) [mm]	zone of inhibition at 100 µg/mL (Staphylococcus aureus [5]) [mm]	zone of inhibition at 25 µg/mL (Staphylococcus aureus [6]) [mm]	zone of inhibition at 25 µg/mL (Escherichia coli [7]) [mm]	MIC (Staphylococcus aureus [8]) [µg/mL]	zone of inhibition at 100 µg/mL (Fusarium oxysporum [9]) [mm]	zone of inhibition at 75 µg/mL (Staphylococcus aureus [10]) [mm]	zone of inhibition at 50 µg/mL (Aspergillus niger [12]) [mm]	zone of inhibition at 100 µg/mL (Fusarium verticillioides [13]) [mm]	zone of inhibition at 50 µg/mL (Fusarium verticillioides [14]) [mm]	MIC (Klebsiella pneumoniae [15]) [µg/mL]	zone of inhibition at 75 µg/mL (Escherichia coli [16]) [mm]	zone of inhibition at 25 µg/mL (Fusarium verticillioides [17]) [mm]	zone of inhibition at 100 µg/mL (Escherichia coli [18]) [mm]	zone of inhibition at 50 µg/mL (Staphylococcus aureus [19]) [mm]	zone of inhibition at 100 µg/mL (Aspergillus niger [21]) [mm]	zone of inhibition at 100 µg/mL (Bacillus subtilis [22]) [mm]	zone of inhibition at 25 µg/mL (Fusarium oxysporum [23]) [mm]	zone of inhibition at 25 µg/mL (Aspergillus niger [24]) [mm]	MIC (Escherichia coli [25]) [µg/mL]	also measured
Cc1cccc2nc(N/N=C/c3cccs3)sc12	21	28	13	10	32 (≈ 117 µM)	30	24	15	15	9	26 (≈ 95.1 µM)	18	7	22	16	26	24	21	11	35 (≈ 128 µM)	MIC (Staphylococcus aureus [1]): 20 µg/mL (≈ 73.2 µM); zone of inhibition at 25 µg/mL (Klebsiella pneumoniae [2]; read-out: DIZ): 7 mm; zone of inhibition at 50 µg/mL (Klebsiella pneumoniae [3]; read-out: DIZ): 11 mm; zone of inhibition at 75 µg/mL (Klebsiella pneumoniae [11]; read-out: DIZ): 18 mm; zone of inhibition at 100 µg/mL (Klebsiella pneumoniae [20]; read-out: DIZ): 21 mm; zone of inhibition at 75 µg/mL (Bacillus subtilis [26]): 21 mm; MIC (Aspergillus niger [27]): 30 µg/mL (≈ 110 µM); zone of inhibition at 25 µg/mL (Bacillus subtilis [28]): 10 mm; zone of inhibition at 50 µg/mL (Bacillus subtilis [29]): 15 mm; zone of inhibition at 50 µg/mL (Escherichia coli [30]): 14 mm; MIC (Fusarium oxysporum [31]): 23 µg/mL (≈ 84.1 µM); zone of inhibition at 50 µg/mL (Fusarium oxysporum [32]): 24 mm; zone of inhibition at 75 µg/mL (Fusarium oxysporum [33]): 29 mm; zone of inhibition at 25 µg/mL (Staphylococcus aureus [34]): 12 mm; MIC (Fusarium verticillioides [35]): 28 µg/mL (≈ 102 µM); zone of inhibition at 75 µg/mL (Fusarium verticillioides [36]): 12 mm; zone of inhibition at 100 µg/mL (Staphylococcus aureus [37]): 28 mm; zone of inhibition at 50 µg/mL (Staphylococcus aureus [38]): 18 mm; zone of inhibition at 75 µg/mL (Staphylococcus aureus [39]): 22 mm; MIC (Bacillus subtilis [40]): 26 µg/mL (≈ 95.1 µM)
Cc1cccc2nc(N/N=C/c3ccc(F)cc3F)sc12	29	19	10	4	23 (≈ 75.8 µM)	20	11	24	33	23	22 (≈ 72.5 µM)	11	18	14	13	30	15	10	17	24 (≈ 79.1 µM)	diameter of the inhibition zone (DIZ) (Klebsiella pneumoniae [2]): inactive; diameter of the inhibition zone (DIZ) (Klebsiella pneumoniae [3]): inactive; diameter of the inhibition zone (DIZ) (Klebsiella pneumoniae [11]): inactive; diameter of the inhibition zone (DIZ) (Klebsiella pneumoniae [20]): inactive; zone of inhibition at 75 µg/mL (Bacillus subtilis [26]): 13 mm; MIC (Aspergillus niger [27]): 26 µg/mL (≈ 85.7 µM); zone of inhibition at 25 µg/mL (Bacillus subtilis [28]): 7 mm; zone of inhibition at 50 µg/mL (Bacillus subtilis [29]): 10 mm; zone of inhibition at 50 µg/mL (Escherichia coli [30]): 7 mm; MIC (Fusarium oxysporum [31]): 18 µg/mL (≈ 59.3 µM); zone of inhibition at 50 µg/mL (Fusarium oxysporum [32]): 13 mm; zone of inhibition at 75 µg/mL (Fusarium oxysporum [33]): 16 mm; zone of inhibition at 25 µg/mL (Staphylococcus aureus [34]): 5 mm; MIC (Fusarium verticillioides [35]): 20 µg/mL (≈ 65.9 µM); zone of inhibition at 75 µg/mL (Fusarium verticillioides [36]): 28 mm; zone of inhibition at 100 µg/mL (Staphylococcus aureus [37]): 15 mm; zone of inhibition at 50 µg/mL (Staphylococcus aureus [38]): 8 mm; zone of inhibition at 75 µg/mL (Staphylococcus aureus [39]): 16 mm; MIC (Bacillus subtilis [40]): 25 µg/mL (≈ 82.4 µM)
